Reference: ChEMBL document CHEMBL5380814, “Targeting Receptor-Interacting Protein Kinase 1 by Novel Benzothiazole Derivatives: Treatment of Acute Lung Injury through the Necroptosis Pathway” (J Med Chem, 2023)
The source made the active and inactive calls. No cut-off for these calls is given here.

Legend:
Mus musculus [1] = assay: In vivo anti-inflammatory activity in NNK induced induced C57BL/6J ALI mouse model assessed as lung injury score pretreated at 25 mg/kg, ip for 1 hr followed by NNK administration relative to disease model (reference value: 5.7 +/- 0.5); type: functional
Mus musculus [2] = assay: In vivo anti-necrotoptic activity in NNK induced induced C57BL/6J ALI mouse model assessed as reduction in RIPK1 phosphorylation pretreated at 25 to 100 mg/kg, ip for 1 hr followed by NNK administration; type: functional, organism-based; conditions: dose 25-100 mg/kg
[3] = molecular target: T1, Receptor-interacting serine/threonine-protein kinase 1 (Homo sapiens) (UniProt Q13546); assay: Inhibition of RIPK1 phosphorylation in TSZ-induced human HT-29 cells assessed as blocking of TSZ-induced necrosome formation at 1 uM pretreated with compound for 2 to 6 hrs followed by TSZ stimulation for 6 hrs measured by Western analysis; type: cell-based; conditions: time 8-12 hrs
T1 sequence (whole entry): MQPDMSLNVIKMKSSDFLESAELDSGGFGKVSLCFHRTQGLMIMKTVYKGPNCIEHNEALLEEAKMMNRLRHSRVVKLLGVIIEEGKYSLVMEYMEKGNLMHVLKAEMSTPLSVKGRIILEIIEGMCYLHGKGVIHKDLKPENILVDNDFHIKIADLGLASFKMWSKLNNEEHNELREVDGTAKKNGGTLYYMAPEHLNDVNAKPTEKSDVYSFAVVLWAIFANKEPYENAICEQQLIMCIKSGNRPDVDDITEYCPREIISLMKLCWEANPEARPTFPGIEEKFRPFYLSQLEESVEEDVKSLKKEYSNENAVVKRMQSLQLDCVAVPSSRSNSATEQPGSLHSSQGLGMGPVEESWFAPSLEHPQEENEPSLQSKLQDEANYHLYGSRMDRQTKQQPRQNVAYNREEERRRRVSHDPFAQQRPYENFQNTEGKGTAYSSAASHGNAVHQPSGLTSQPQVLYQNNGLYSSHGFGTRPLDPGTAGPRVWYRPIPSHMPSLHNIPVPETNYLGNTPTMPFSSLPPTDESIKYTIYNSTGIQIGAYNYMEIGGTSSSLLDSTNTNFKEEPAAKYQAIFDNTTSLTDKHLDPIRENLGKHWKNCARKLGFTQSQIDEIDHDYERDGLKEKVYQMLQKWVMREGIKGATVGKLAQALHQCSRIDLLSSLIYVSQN

Mus musculus [4] = assay: In vivo anti-inflammatory activity in NNK induced induced C57BL/6J ALI mouse model assessed as mild alveolar thickening in lung pretreated at 25 to 100 mg/kg, ip for 1 hr followed by NNK administration by HE staining analysis; type: functional, organism-based; conditions: dose 25-100 mg/kg
Mus musculus [5] = assay: In vivo anti-inflammatory activity in NNK induced induced C57BL/6J ALI mouse model assessed as decrease in bronchoalveolar lavage fluid (BALF) total protein pretreated intraperitoneally for 1 hr followed by NNK administration; type: functional, organism-based; conditions: dose 25-100 mg/kg, route ip
HT-29 [6] = assay: Anti-necroptotic activity in TSZ induced human HT-29 cells assessed as inhibition of necrosome formation preincubated with compound at 1 uM for 6 hrs followed by TSZ stimulation for 6 hrs measured by cell-titre glo luminescent cell viability assay; type: functional, cell-based; conditions: time 12.0 hrs
[7] = molecular target: T2, Receptor-interacting serine/threonine-protein kinase 3 (Homo sapiens, UniProt Q9Y572); assay: Inhibition of RIPK3 phosphorylation in TSZ-induced human HT-29 cells assessed as blocking of TSZ-induced necrosome formation at 1 uM pretreated with compound for 2 to 6 hrs followed by TSZ stimulation for 6 hrs measured by Western analysis; type: cell-based; conditions: time 8-12 hrs
Target sequence in this assay (Q9Y572 whole entry, looked up): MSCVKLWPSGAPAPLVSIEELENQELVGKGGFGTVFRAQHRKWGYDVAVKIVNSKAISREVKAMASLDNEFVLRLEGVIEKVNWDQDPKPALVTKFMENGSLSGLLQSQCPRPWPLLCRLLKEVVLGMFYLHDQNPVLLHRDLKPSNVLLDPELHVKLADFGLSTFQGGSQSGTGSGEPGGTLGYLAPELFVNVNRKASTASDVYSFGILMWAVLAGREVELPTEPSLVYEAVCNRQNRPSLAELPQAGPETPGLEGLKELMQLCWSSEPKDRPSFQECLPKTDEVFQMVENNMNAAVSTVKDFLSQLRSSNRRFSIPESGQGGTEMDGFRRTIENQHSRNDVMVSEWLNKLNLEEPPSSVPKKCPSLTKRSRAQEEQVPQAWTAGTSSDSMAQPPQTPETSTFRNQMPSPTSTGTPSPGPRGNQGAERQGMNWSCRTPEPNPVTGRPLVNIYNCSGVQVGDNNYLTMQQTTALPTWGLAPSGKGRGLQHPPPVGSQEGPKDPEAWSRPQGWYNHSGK

[8] = molecular target: T2, Receptor-interacting serine/threonine-protein kinase 3; assay: Inhibition of RIPK3 phosphorylation in TSZ-induced human HT-29 cells assessed as blocking of TSZ-induced necrosome formation at 0.5 uM pretreated with compound for 6 hrs followed by TSZ stimulation for 6 hrs measured by Western analysis; type: cell-based; conditions: time 12.0 hrs
Target sequence in this assay (Q9Y572 whole entry, looked up): as above

Mus musculus [9] = assay: In vivo anti-necrotptic activity in mTNFalpha induced C57BL/6J SIRS mouse model assessed as protection from body temperature loss pretreated at 10 mg/kg, po for 1 hr followed by mTNFalpha/Z-VAD-FMK administration measured after 45 mins by electric thermometer; type: functional, organism-based; conditions: time 105.0 min
HT-29 [10] = assay: Anti-necroptotic activity in human HT-29 cells assessed as protection against human TNFalpha/cycloheximide/Z-VAD-FMK induced necroptosis preincubated with compound at 0.3 uM for 16 to 24 hrs followed by TCZ stimulation for 16 hrs measured by cell-titre glo luminescent cell viability assay relative to control; type: functional; conditions: time 32-40 hrs
HT-29 [11] = assay: Anti-necroptotic activity in human HT-29 cells assessed as inhibition of human TNFalpha/Smac mimetic/Z-VAD-FMK induced necroptosis preincubated with compound upto 50 nM for 16 to 24 hrs followed by TSZ stimulation for 12 hrs measured by cell-titre glo luminescent cell viability assay; type: functional, cell-based; conditions: time 28-36 hrs
Mus musculus [12] = assay: In vivo anti-inflammatory activity in NNK induced induced C57BL/6J ALI mouse model assessed as decrease in lung TNF-alpha mRNA level pretreated at 25 to 100 mg/kg, ip for 1 hr followed by NNK administration; type: functional, organism-based; conditions: dose 25-100 mg/kg
Mus musculus [13] = assay: In vivo anti-inflammatory activity in NNK induced induced C57BL/6J ALI mouse model assessed as decrease in bronchoalveolar lavage fluid (BALF) TNF-alpha level pretreated at 25 to 100 mg/kg, ip for 1 hr followed by NNK administration; type: functional, organism-based; conditions: dose 25-100 mg/kg
[14] = molecular target: T3, Receptor-interacting serine/threonine-protein kinase 1 (Homo sapiens, UniProt Q13546); assay: Binding affinity to human wildtype full length RIPK1 (M1 to K305 residues) expressed in bacterial expression system assessed as dissociation constant by kinome scan kd select based qPCR analysis
T3 sequence (Q13546 whole entry): T1 sequence (whole entry)

U-937 = assay: (§1) Anti-necroptotic activity in human U-937 cells assessed as protection against human TNFalpha/Smac mimetic/Z-VAD-FMK induced necroptosis preincubated with compound upto 50 nM for 16 to 24 hrs followed by TSZ stimulation for 12 hrs measured by cell-titre glo luminescent cell viability assay; type: functional, cell-based; conditions: time 28-36 hrs
HT-29 [15] = assay: Anti-necroptotic activity in human HT-29 cells assessed as inhibition of human TNFalpha/Smac mimetic/Z-VAD-FMK induced necroptosis preincubated with compound for 16 to 24 hrs followed by TSZ stimulation for 12 hrs measured by cell-titre glo luminescent cell viability assay; type: functional, cell-based
Mus musculus [16] = assay: In vivo anti-necrotptic activity in mTNFalpha induced C57BL/6J SIRS mouse model assessed as reduction in serum IL-1beta level pretreated at 5 to 20 mg/kg, po for 1 hr followed by mTNFalpha/Z-VAD-FMK administration measured after 3 hrs by ELISA analysis; type: functional, organism-based; conditions: dose 5-20 mg/kg, time 4.0 hrs
Mus musculus [17] = assay: In vivo anti-inflammatory activity in NNK induced induced C57BL/6J ALI mouse model assessed as less congestion in lung pretreated at 25 to 100 mg/kg, ip for 1 hr followed by NNK administration by HE staining analysis; type: functional, organism-based; conditions: dose 25-100 mg/kg
[18] = molecular target: T2, Receptor-interacting serine/threonine-protein kinase 3; assay: Binding affinity to human wildtype full length RIPK3 (M1 to Q307 residues) expressed in bacterial expression system assessed as dissociation constant by kinome scan kd select based qPCR analysis
Target sequence in this assay (Q9Y572 whole entry): as the sequence (Q9Y572 whole entry, looked up) above

HT-29 [19] = assay: as §1, with “HT-29” for “U-937”, “at” for “upto”, “assay relative to control” for “assay”; type: functional; conditions: time 28-36 hrs
HT-29 [20] = assay: Cytotoxicity against human HT-29 cells incubated for 16 to 24 hrs measured by cell-titre glo luminescent cell viability assay; type: functional; conditions: time 16-24 hrs

## CCS(=O)(=O)NC1CCC(C(=O)Nc2nc3cc(F)c(Oc4ccc(F)c(NC(=O)Cc5cccc(C(F)(F)F)c5)c4)cc3s2)CC1 (stereo unspecified)
Mus musculus [1]
  Activity: 4.3
Mus musculus [2]
  Activity: Active
[3]
  inhibition: Active
Mus musculus [4]
  Activity: Active
Mus musculus [5]
  Activity: Dose-Dependent Effect
HT-29 [6]
  Activity: Active
[7]
  inhibition: Active
[8]
  inhibition: Active
Mus musculus [9]
  Activity: Active
HT-29 [10]
  Activity: >50%
HT-29 [11]
  Activity: Dose-Dependent Effect
Mus musculus [12]
  Activity: Active
Mus musculus [13]
  Activity: Active
[14]
  Kd: 85 nM
U-937
  Activity: inactive
HT-29 [15]
  EC50: 22.4 nM
Mus musculus [16]
  Activity: Active
Mus musculus [17]
  Activity: Active
[18]
  Kd: > 10000 nM
HT-29 [19]
  Activity: 100%
HT-29 [20]
  CC50: > 100000 nM
